Key:
[1] = test system: endogenous PD-L1; assay: PET imaging in non-human primate, baseline and blocking study; details: for % Change of tracer SUV, baseline vs blocked: 2 mg/kg PD-L1 binding macrocyclic peptide
Description: (§1) Cynomolgus male monkeys with a previously installed vascular access port (VAP) were anesthetized with 0.02 mg/kg atropine, 5 mg/kg Telazol and 0.01 mg/kg buprenorphine I.M. (all drawn into a single syringe). An i.v. catheter is then placed in the cephalic vessel for fluid administration during the imaging procedure to maintain hydration. Animals were intubated with an endotracheal tube—usually 3.0 mm and transferred to the imaging bed of a microPET® F220TM PET instrument (Siemens Preclinical Solutions, Knoxville, Tenn.). Anesthesia was maintained with isoflurane and oxygen and I.V. fluids (LRS) were administered at a rate of 6 ml/kg/hr during the imaging procedure. As the axial field of view of the microPET® F220™ instrument is only 7.6 cm, images over 5 distinct bed positions were acquired to create a composite image of the animals from just above the heart through approximately the pelvis.
(§2) For each field of view, a 10 minute transmission image was first acquired using a ^57Co point source for the purpose of attenuation correction of the final PET images. Once transmission images were acquired for all bed positions, approximately 1.7 mCi (approximately 0.12 μg/kg) of the [^18F]labelled macrocyclic PD-L1 peptide radiotracer was administered via the installed VAP. 5 minute duration emission scans were then sequentially acquired for each bed position, beginning at position 1 centered approximately at the heart and moving toward the pelvis of the animal. Once images were acquired at each position (1 through 5), the imaging bed was moved back to bed position 1 and the process was repeated. Using this procedure, a total of 5 distinct images were acquired for each bed position over the duration of the imaging study.
(§3) Individual images were reconstructed using a filtered back projection (FBP) algorithm with attenuation correction using the collected transmission images and corrected for radioisotope decay. Final composite images were then produced by aligning images from all 5 bed positions obtained from a single pass (i.e. a single composite image was produced from each set of sequential images from bed positions 1 through 5) covering the duration of the imaging study. […] To determine the nature of the specific binding in the cynomolgus monkey spleen a blocking study was conducted in the following manner.
(§4) The cynomolgus monkey (4.4 kg, male) received a single IV injection of [^18F]labelled macrocyclic PD-L1 peptide radiotracer (˜1.7 mCi, mass: 0.21 μg/kg) at baseline. On the following day (post-dose), the same NHP received a single SC dose of 2 mg/kg anti-PD-L1 binding macrocyclic peptide at 2 hours before radiotracer injection (˜1.7 mCi, mass: 0.12 μg/kg).

[2] = as above; details: male, cynomolgus monkey, iv, total radioactivity
Description: as §1, §2, §3, §4

[3] = in vivo; details: mouse, hPD-L1(−) HT-29 xenograft tumor, iv, total radioactivity
Description: In this experiment, the [^18F]labelled macrocyclic PD-L1 peptide was produced as described in the above Examples, was tested for its ability to discriminate between hPD-L1-positive tumors and hPD-L1-negative tumors in mice.
Mice bearing bilateral xenograft tumors were produced by introducing 2×10^6 hPD-L1(+) L2987 human lung carcinoma cells and 4×10^6 hPD-L1(−) HT-29 human colon carcinoma cells subcutaneously on opposite sides of the mouse. Once tumors reached approximately 300 mm^3 (approximately 2-3 weeks after cell implantation), animals were selected for imaging. The body weight and tumor size of each study were measured and recorded on the imaging day before imaging procedure. Mice were placed in an anesthetic induction chamber and 3% isoflurane inhalant anesthesia was delivered in 100% O2 at a rate of 1-1.5 L/min. […] Mouse respiration was continuously monitored during imaging procedures and isoflurane may be adjusted dependent on depth of anesthesia. […] Time-activity curves were calculated for each ROI to yield a quantitative view of radiotracer within the tumor volume over the course of the 2 hour emission image. […]

Question: For CCCC[C@H]1C(=O)N(C)[C@@H](CCCC)C(=O)N[C@@H](CC(C)C)C(=O)N[C@H](C(=O)NCC(=O)N[C@@H](Cc2cn(CCOCCOCCOCCOc3cccnc3[18F])nn2)C(=O)O)CSCC(=O)N[C@@H](Cc2ccc(O)cc2)C(=O)N(C)[C@@H](C)C(=O)N[C@@H](CC(N)=O)C(=O)N2CCC[C@H]2C(=O)N[C@@H](CN)C(=O)N[C@@H](CC(C)C)C(=O)N2C[C@H](O)C[C@H]2C(=O)N[C@@H](Cc2c[nH]c3ccccc23)C(=O)N[C@@H](CCN)C(=O)N[C@@H](Cc2cn(CC(=O)O)c3ccccc23)C(=O)N1C [[^18F]labelled macrocyclic PD-L1 peptide], which “tracer uptake blocked in the spleen” value ([1]; 2 mg/kg of a specific PD-L1 binding macrocyclic peptide) is on record?
Answer: 93%

Question: And the “% Change of tracer SUV, baseline vs blocked” value (from here on “% Change of tracer SUV”) ([1]; Duodenum)?
Answer: −0.9%

Question: What about the “% Change of tracer SUV” value ([1]; Gallbladder) of the same molecule?
Answer: −59.4%

Question: And the “% Change of tracer SUV” value ([1]; Kidney Cortex)?
Answer: 28.8%

Question: And the “% Change of tracer SUV” value ([1]; Kidney Pelvis)?
Answer: 171.7%

Question: And the “% Change of tracer SUV” value ([1]; Liver)?
Answer: −65.5%

Question: And the “% Change of tracer SUV” value ([1]; Lung)?
Answer: −57.3%

Question: What about the “% Change of tracer SUV” value ([1]; Muscle) of the same molecule?
Answer: −34.7%

Question: And the “notable radiotracer accumulation (organs)” value ([1]; PET images)?
Answer: kidneys, spleen, and bladder

Question: And the “% Change of tracer SUV” value ([1]; Spleen)?
Answer: −92.8%

Question: And the “% Change of tracer SUV” value ([1]; Thymus)?
Answer: −53.3%

Question: And the “background accumulation of radiotracer in background tissues such as muscle” value ([1]; visual inspection of PET images)?
Answer: very low

Question: And the SUV ([2]; duodenum, 0.21 ug/kg)?
Answer: 8.84 SUV

Question: And the SUV ([2]; duodenum, 2 mg/kg)?
Answer: 8.76 SUV

Question: And the SUV ([2]; gallbladder, 0.21 ug/kg)?
Answer: 2.78 SUV

Question: And the SUV ([2]; gallbladder, 2 mg/kg)?
Answer: 1.13 SUV

Question: And the SUV ([2]; kidney cortex, 0.21 ug/kg)?
Answer: 8.42 SUV

Question: And the SUV ([2]; kidney cortex, 2 mg/kg)?
Answer: 10.8 SUV

Question: And the SUV ([2]; kidney pelvis, 0.21 ug/kg)?
Answer: 8.86 SUV

Question: And the SUV ([2]; kidney pelvis, 2 mg/kg)?
Answer: 24.1 SUV

Question: What about the SUV ([2]; liver, 0.21 ug/kg) of the same molecule?
Answer: 9.16 SUV

Question: And the SUV ([2]; liver, 2 mg/kg)?
Answer: 3.17 SUV

Question: And the SUV ([2]; lung, 0.21 ug/kg)?
Answer: 1.86 SUV

Question: And the SUV ([2]; lung, 2 mg/kg)?
Answer: 0.793 SUV

Question: What about the SUV ([2]; muscle, 0.21 ug/kg) of the same molecule?
Answer: 0.521 SUV

Question: And the SUV ([2]; muscle, 2 mg/kg)?
Answer: 0.341 SUV

Question: And the SUV ([2]; spleen, 0.21 ug/kg)?
Answer: 19.7 SUV

Question: What about the SUV ([2]; spleen, 2 mg/kg) of the same molecule?
Answer: 1.42 SUV

Question: What about the SUV ([2]; thymus, 0.21 ug/kg) of the same molecule?
Answer: 1.99 SUV

Question: What about the SUV ([2]; thymus, 2 mg/kg) of the same molecule?
Answer: 0.931 SUV

Question: What about the SUV ([3]; 1 ug/kg) of the same molecule?
Answer: 0.037 SUV

Question: What about the SUV ([3]; 60 mg/kg) of the same molecule?
Answer: 0.071 SUV

Source: patent US11103605B2, “PET-imaging immunomodulators” (BRISTOL-MYERS SQUIBB COMPANY, priority 2016, dated 2021)
